Data published in patent publication US8633167B2, “Method for the protection of trees” (Syngenta Crop Protection LLC, priority 2006, dated 2014).

System: Ips engravers beetles
Experiment: Single-tree protection study (Example 2): Ips attack, tree mortality and gallery construction on standing loblolly pine
Format: in vivo
Conditions: for Mean # of Egg Galleries Total Number / Mean # of Egg Galleries With Brood No. / Mean # of Egg Galleries Without Brood No. / Mean Length of Egg Galleries Total Length / Mean Length of Egg Galleries With Brood cm / Mean Length of Egg Galleries Without Brood cm: bolts cut after tree mortality or at the end of the trial; for Mean # of Nuptial Chambers With Egg Galleries % of Total / Mean # of Nuptial Chambers Without Egg Galleries % of Total / Mean # of Nuptial Chambers Without Egg Galleries No. / Mean # of Nuptial Chambers with Egg Galleries No. / Mean Total # of Nuptial Chambers: bolts cut after tree mortality or the end of the trial
Procedure: Two 20-year-old, recently thinned loblolly pine plantations were selected on land owned by Temple-Inland Forest Products Corporation about 5 km south of Wells (Angelina County), Tex. Trees in one plantation were injected for use in a bolt study (Example 1). Trees in a 0.2 ha section of the second plantation were injected as part of a single-tree protection study (Example 2). A staging area also was set up in the second plantation where bolts from the first plantation were exposed to bark beetles and wood borers.
Loblolly pine, 15-20 cm DBH, were selected in the second plantation in March 2004. Each treatment (the same as those used in Example 1) was injected into four cardinal points about 0.3 m above the ground on each of 6 trees in April (16th-23rd) using the Arborjet Tree IV™ system. After 5 weeks post-injection (May 28), frills were cut with a hatchet into the sapwood between the injection points near the base of the tree. A cellulose sponge was inserted into each cut and loaded with 10 ml of a 4:1 mix of sodium N-methyldithiocarbamate (MS) (Woodfume®; Osmose, Inc., Buffalo, N.Y.) plus dimethyl sulfoxide (DMSO) (Aldrich Chemical) (Roton 1987, Strom et al. 2004). This method reduces resin to near zero in 1-2 weeks. The intent was to stress the tree and make it susceptible to attack by bark beetles without killing it.
Pheromone packets containing racemic ipsdienol + lanerione, ipsenol or cis-verbenol were attached (June 7) atop 3 m stakes evenly spaced in between and around the study trees to encourage attack by the three Ips engraver species. […] Thus, ipsdienol and cis-verbenol pheromone baits were deployed on all stakes on June 17th. The baits were changed every 4 weeks.
A clear panel of acetate (10 cm wide by 25 cm long) coated with Stickem Special® was attached 2 m high on standing trees after deployment of pheromone baits to monitor arrival of bark beetles. The traps were left in place for two weeks.
Three weeks after pheromone deployment (June 28), each tree was evaluated by marking a 30 cm section of bole at a height of 3 m. All visible Ips attacks and cerambycid egg niches were counted within the marked area. The number of trees with fading crowns also was recorded. Thereafter, the trees were evaluated weekly for crown fading. When mortality did occur, the trees were felled and two bolts taken and evaluated for attack success and gallery length as described in Example 1. All remaining trees were felled 66 days (Aug. 9) after initial pheromone deployment when no additional trees had died for 3 weeks. Treatment efficacy was determined by comparing tree survival, beetle attacks and egg gallery length on treated and untreated bolts. As before, data were transformed and analyzed by GLM and the Fisher's Protected LSD test using the Statview statistical program.

In the case of “4″-deoxy-4″-N-methylamino avermectin B1a/B1b [Emamectin]”, the “Percentage of Trees With Fading Crowns” value (after 24 days) was 0.0 a %, the “Percentage of Trees With Fading Crowns” value (after 32 days) was 0.0 a % and the “Percentage of Trees With Fading Crowns” value (after 39 days) was 0.0 a %. The “Percentage of Trees With Fading Crowns” value (after 46 days) was 0.0 a %, the “Percentage of Trees With Fading Crowns” value (after 52 days) was 0.0 a % and the “Percentage of Trees With Fading Crowns” value (after 66 days) was 0.0 a %. The “Mean # of Egg Galleries Total Number” value (bolt height 3 m) was 0.0 a, the “Mean # of Egg Galleries With Brood No.” value (bolt height 3 m) was 0.0 a and the “Mean # of Egg Galleries Without Brood No.” value (bolt height 3 m) was 0.0 a. The “Mean Length of Egg Galleries Total Length” value (bolt height 3 m) was 0.0 a cm, the “Mean Length of Egg Galleries With Brood cm” value (bolt height 3 m) was 0.0 a cm and the “Mean Length of Egg Galleries Without Brood cm” value (bolt height 3 m) was 0.0 a cm. The “Mean # of Egg Galleries Total Number” value (bolt height 8 m) was 0.0 a, the “Mean # of Egg Galleries With Brood No.” value (bolt height 8 m) was 0.0 a and the “Mean # of Egg Galleries Without Brood No.” value (bolt height 8 m) was 0.0 a. The “Mean Length of Egg Galleries Total Length” value (bolt height 8 m) was 0.0 a cm, the “Mean Length of Egg Galleries With Brood cm” value (bolt height 8 m) was 0.0 a cm and the “Mean Length of Egg Galleries Without Brood cm” value (bolt height 8 m) was 0.0 a cm. For the same substance, the “Mean # of Nuptial Chambers With Egg Galleries % of Total” value (bolt height 3 m) was 0.0%, the “Mean # of Nuptial Chambers Without Egg Galleries % of Total” value (bolt height 3 m) was 100.0% and the “Mean # of Nuptial Chambers Without Egg Galleries No.” value (bolt height 3 m) was 3.0 ab. For the same substance, the “Mean # of Nuptial Chambers with Egg Galleries No.” value (bolt height 3 m) was 0.0 a, the “Mean Total # of Nuptial Chambers” value (bolt height 3 m) was 3.0 a and the “Mean # of Nuptial Chambers With Egg Galleries % of Total” value (bolt height 8 m) was 0.0%. For the same substance, the “Mean # of Nuptial Chambers Without Egg Galleries % of Total” value (bolt height 8 m) was 100.0%, the “Mean # of Nuptial Chambers Without Egg Galleries No.” value (bolt height 8 m) was 1.3 ab and the “Mean # of Nuptial Chambers with Egg Galleries No.” value (bolt height 8 m) was 0.0 a. The “Mean Total # of Nuptial Chambers” value (bolt height 8 m) was 1.3 a, the “attacks on cut bolts compared to the check” value (cut bolts, both heights) was “significantly fewer” and the “success of attacks that did occur” value (cut bolts, both heights) was “completely unsuccessful”. The “Mean # of Attacks/0.3 Bole Section at 3 m after 24 days, Ips” value (standing loblolly pine, after 24 days) was 0.5 a, the “Mean # of Ips caught/Trap” value (standing loblolly pine, trap 2 m high) was 1.2 a and the “Ips attacks compared to checks” value (standing trees, at 3 m height) was “significantly fewer”. For the same substance, the “trees with fading crowns (yellowing needles)” value (standing trees, first evaluation) was “None” and the tree survival (standing trees, study discontinued after 66 days) was “all emamectin benzoate-treated trees survived”.
